Article PMC9874818 (Archiv Der Pharmazie, 2022)
Starred links: 1 amine or outer side, 2 acyl side, 3 side chain; linkers in the order of their positions; H or OH if unused. Residues, ends and D or L forms follow the SMILES beside them. CO = O=C([*:1])[*:2]

Tests used:
[1] = biological target: Furin (human recombinant aa108–715) (Homo sapiens, UniProt P09958); test: biochemical
CATSL (human liver) = CATSL (human liver) (Homo sapiens, UniProt P07711); test: biochemical
CATSB (human liver) = CATSB (human liver) (Homo sapiens, UniProt P07858); test: biochemical
[2] = biological target: TMPRSS2 (human recombinant) (Homo sapiens, UniProt O15393); assay type: biochemical; settings: ratio of IC50 values
TMPRSS2 (human recombinant), sequence (O15393 whole entry): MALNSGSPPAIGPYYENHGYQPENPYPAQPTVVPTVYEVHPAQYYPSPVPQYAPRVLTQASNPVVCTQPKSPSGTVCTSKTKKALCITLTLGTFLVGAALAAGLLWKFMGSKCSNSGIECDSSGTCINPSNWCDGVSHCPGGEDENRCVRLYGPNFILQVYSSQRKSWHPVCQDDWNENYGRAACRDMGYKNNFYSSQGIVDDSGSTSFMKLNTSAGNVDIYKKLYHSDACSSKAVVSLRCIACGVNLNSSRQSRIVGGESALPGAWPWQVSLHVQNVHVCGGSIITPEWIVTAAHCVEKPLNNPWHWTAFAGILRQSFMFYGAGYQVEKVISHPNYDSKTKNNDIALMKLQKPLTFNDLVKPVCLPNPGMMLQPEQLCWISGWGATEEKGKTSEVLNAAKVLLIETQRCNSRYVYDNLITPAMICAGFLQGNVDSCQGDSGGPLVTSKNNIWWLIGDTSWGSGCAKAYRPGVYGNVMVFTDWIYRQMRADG

[3] = cited from earlier work

Furin (human recombinant aa108–715), sequence (P09958 108-715): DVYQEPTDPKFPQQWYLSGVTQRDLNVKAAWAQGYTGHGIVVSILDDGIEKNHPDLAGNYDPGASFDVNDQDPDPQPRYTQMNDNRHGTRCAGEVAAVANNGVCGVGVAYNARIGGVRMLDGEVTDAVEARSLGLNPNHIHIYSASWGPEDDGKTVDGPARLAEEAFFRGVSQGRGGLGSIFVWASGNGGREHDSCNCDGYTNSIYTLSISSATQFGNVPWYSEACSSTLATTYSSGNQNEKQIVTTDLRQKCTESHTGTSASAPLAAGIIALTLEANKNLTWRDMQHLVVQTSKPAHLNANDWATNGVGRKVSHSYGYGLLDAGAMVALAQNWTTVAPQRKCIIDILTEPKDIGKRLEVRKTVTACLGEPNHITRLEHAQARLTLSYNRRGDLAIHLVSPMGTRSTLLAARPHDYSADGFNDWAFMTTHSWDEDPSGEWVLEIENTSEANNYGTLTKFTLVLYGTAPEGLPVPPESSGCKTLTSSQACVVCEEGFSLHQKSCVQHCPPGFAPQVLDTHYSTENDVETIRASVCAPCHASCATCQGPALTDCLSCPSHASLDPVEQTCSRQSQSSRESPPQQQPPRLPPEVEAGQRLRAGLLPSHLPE
CATSL (human liver), sequence (P07711 114-333): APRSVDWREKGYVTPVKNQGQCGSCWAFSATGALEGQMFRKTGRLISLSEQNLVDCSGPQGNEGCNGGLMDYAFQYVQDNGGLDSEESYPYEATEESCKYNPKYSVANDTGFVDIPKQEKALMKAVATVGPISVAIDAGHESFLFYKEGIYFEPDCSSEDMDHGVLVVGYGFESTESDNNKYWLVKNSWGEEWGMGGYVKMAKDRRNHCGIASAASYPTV

SMILES | IC50 [1] | IC50 (CATSL (human liver)) | IC50 (CATSB (human liver)) | increase in TMPRSS2 potency over BC-11 [2] | plasma half-life [3]
CC(C)[C@H](NC(=O)[C@H](CCCNC(=N)N)NC(=O)N[C@@H](Cc1ccccc1)C(=O)O)C(=O)N[C@H](C=O)CCCNC(=N)N [antipain, L‐Phe‐CO‐L‐Arg‐L‐Val‐L‐Arg‐H] ({Phe-CO}-Arg-Val-Arg-aldehyde) | 4170 nM | 2.74 nM | 24.1 nM | 2 fold | –
CN(C)C(=O)COC(=O)Cc1ccc(OC(=O)c2ccc(NC(=N)N)cc2)cc1 [camostat] | – | – | – | – | approximately an hour or less
N=C(N)c1ccc2cc(OC(=O)c3ccc(N=C(N)N)cc3)ccc2c1 [nafamostat] | – | – | – | – | approximately an hour or less
